Series [1] has as its system immune cell populations in tumor and spleen. Put plainly: Immune activation and infiltration by flow cytometry. As to conditions: 24 h after second dose. In kind it is in vivo, CT-26-bearing BALB/c mice. The protocol: Tumor size was determined daily via manual caliper measurement. […] Animals were euthanized via cervical dislocation.
The generation and treatment of tumor-bearing mice are outlined in the section “In vivo syngraft experiments” above. Samples were kept on ice during the whole procedure. Tissues were prepared as described previously.[55] In brief, tumor and spleen tissues were collected and mechanically dissociated in DPBS buffer containing Ca^2+/Mg^2+ and FCS (5%). Tumor samples were digested using collagenase VIII (1 mg mL^−1) in a DPBS buffer (without Ca^2+/Mg^2+) supplemented with DNAse I (1 mg mL^−1) for 15 min at 37 °C under constant shaking. Samples were filtered using 70 μm cell strainers in a DPBS buffer (without Ca^2+/Mg^2+) containing FCS (5%), EDTA (5 mM) and DNase I (20 μg mL^−1). Subsequent washing steps were performed in DPBS buffer (without Ca^2+/Mg^2+) containing FCS (5%), EDTA (5 mM) and DNase I (20 μg mL^−1), unless indicated otherwise. Red blood cells were removed by short incubation with ACK buffer. For blocking, samples were incubated with the Ultra-LEAF purified anti-mouse CD16/CD32 antibody (clone: 93; #101330; RRID:AB_2783037; dilution: 1 : 1000) (Biolegend, San Diego, CA, USA) in the BD Horizon Brilliant Stain Buffer (#563794; BD Biosciences) for 10 min. Next, the samples were incubated with an antibody mixture in the BD Horizon Brilliant Stain Buffer for 30 min. Fluorescent dye-labeled antibodies targeting murine CD3 (17A2; #100203; RRID:AB_312661; 1 : 50), CD8a (53-6.7; #100738; RRID:AB_11204079; 1 : 160), CD19 (6D5; #115528; RRID:AB_493735; 1 : 400), CD49b (DX5; #108924; RRID:AB_2565271; 1 : 229), CD11b (M1/70; #101228; RRID:AB_893232; 1 : 80), and CD69 (H1.2F3; # 104512; RRID:AB_493564; 1 : 40) were purchased from BioLegend. The antibody targeting murine CD4 (RM4-5; # 85-0042-U100; 1 : 80) and the viability dye Ghost Dye Red 780 (#13-0865-T100; 1 : 1000) were purchased from Tonbobio (San Diego, CA, USA). The antibody targeting CD45 (30-F11; #363-0451-82; RRID:AB_2925264; 1 : 80) was purchased from Life Tech (Invitrogen). For intracellular staining of granzyme B (GzmB) (QA16A02; #372208; RRID:AB_2687032; 1 : 20) and FoxP3 (MF-14; #320014; RRID:AB_439750; 1 : 100) the True-Nuclear Transcription Factor Buffer Set (Biolegend; #424401) was used according to the manufacturer's recommendations. In brief, samples were incubated with Perm Fix Solution for 60 min at RT. Next, the samples were stained with antibodies targeting GzmB and FoxP3 (diluted in Perm buffer) for 30 min at RT. […] Next day, the samples were analyzed using a Cytek Aurora 5L (Cytek Biosciences, CA, USA) spectral flow cytometer. Data were analyzed using SpectroFlo (v3.2.1) (Cytek Biosciences) and FlowJo (v10.8.1) (FlowJo LLC, Ashland, OR, USA) software.

Another series deals with T1, albumin (Bos taurus, UniProt P02769).
T1 construct: Serum proteins have a retention span of ∼2–4 min as part of the high-molecular weight fraction with albumin at ∼4 min; tissue Sigma-Aldrich; host or cells: fetal calf serum (whole serum, buffered with 150 mM phosphate buffer pH 7.4)
Put plainly: Albumin binding in fetal calf serum, SEC-ICP-MS. As to conditions: 50 μM in FCS, 37 °C, up to 24 h. In kind it is in vitro ADME. The protocol:
FCS was purchased from Sigma-Aldrich and buffered with 150 mM PB pH 7.4 to guarantee a stable pH. The platinum(IV) complexes were dissolved in 150 mM PB (pH 7.4) at a concentration of 5 mM and diluted 1 : 100 in the buffered serum to obtain a final concentration of 50 μM. The samples were then incubated in an autosampler at 37 °C and analyzed for 24 h. Between each sample, a pure water blank was measured. For SEC-ICP-MS measurements an Agilent 1260 Infinity system coupled to an Agilent 7800 ICP-MS equipped with a dynamic reaction cell was used. Oxygen (purity 5.5, Messer Austria GmbH, Gumpoldskirchen, Austria) was used as a reaction gas.

A further series has as its system THP1-Dual cells. As to the kind of experiment: Cytokine and chemokine secretion in cell culture supernatant, Luminex. As to conditions: 24 h. In kind it is cell-based, human. As to the method: Quantification of secreted protein targets in either cell culture SN or in plasma of treated animals was performed using a ProcartaPlex (96-well) multiplex assay panel (Thermo Fisher Scientific) in the xMAP detection platform (Luminex). For the in vitro detection of secreted proteins, THP1-Dual cells were seeded at 1 × 10^5 cells per well in 96-well plates in RPMI-1640 medium, supplemented with 10% FCS, L-glutamine and Pen-Strep. After 24 h of recovery, the compounds were applied at the concentrations indicated in triplicate.
After 24 h of drug incubation, the cell culture SN of technical triplicate was collected, pooled, centrifuged (400g, 10 min, 4 °C), transferred into a fresh tube, and stored at −20 °C.
Next, the ProcartaPlex (96-well) multiplex assay panel was performed according to the manufacturer's recommendations. In brief, the capture bead mix was incubated with test samples (undiluted SN or mouse plasma) or standard mix overnight. The SN of three independent experiments or the plasma of four animals per treatment group was loaded onto the multiplex assay plate. Next, biotinylated detection antibody mix and Streptavidin-PE were added to the plate. Following the recommended washing steps, the samples were incubated in a reading buffer and were measured using a Luminex xMAP platform (Bio-Plex MAGPIX Multiplex Reader; Bio-Rad Laboratories) and analyzed using xPONENT software.

The structures appear in SMILES notation.

T1 sequence (P02769 25-607): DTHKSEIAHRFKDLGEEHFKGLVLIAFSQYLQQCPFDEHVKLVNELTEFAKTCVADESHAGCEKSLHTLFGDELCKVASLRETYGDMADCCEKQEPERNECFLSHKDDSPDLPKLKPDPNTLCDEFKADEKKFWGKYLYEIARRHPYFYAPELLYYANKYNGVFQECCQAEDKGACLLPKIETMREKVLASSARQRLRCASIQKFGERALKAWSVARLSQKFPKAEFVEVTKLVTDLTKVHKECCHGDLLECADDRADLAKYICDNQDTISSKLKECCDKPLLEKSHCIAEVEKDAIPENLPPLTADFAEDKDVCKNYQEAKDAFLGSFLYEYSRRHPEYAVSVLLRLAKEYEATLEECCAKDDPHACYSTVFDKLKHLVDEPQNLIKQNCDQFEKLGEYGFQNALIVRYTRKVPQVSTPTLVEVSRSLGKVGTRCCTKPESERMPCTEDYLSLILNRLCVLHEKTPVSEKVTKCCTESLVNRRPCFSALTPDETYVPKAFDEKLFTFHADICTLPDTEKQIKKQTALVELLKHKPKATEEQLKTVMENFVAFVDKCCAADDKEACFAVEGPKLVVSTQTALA

Regarding `COCCOCCOCCOCCNC(=O)[O][Pt-2]12([O]C(=O)CCC(=O)c3cc4cc(OC)c(OC)cc4s3)([NH2+][C@@H]3CCCC[C@H]3[NH2+]1)[O]C(=O)C(=O)[O]2` [Ox-MSA-PEG-Ca, (OC-6-34)-[(1R,2R)-1,2-cyclohexanediamino]-oxalato-[4-(5,6-dimethoxybenzo[b]thiophen-2-yl)-4-oxobutylcarboxylato]-[3,6,9,12-tetraoxatridecan-1-amino]platinum(IV)], the “FoxP3+ CD4+ T cell compartment in the spleen” value in series [1] is reported as “selectively elevated”. For the same compound, at albumin, the “ability to conjugate to albumin” value is listed as “lacked the ability to conjugate to albumin”. Besides, the “secretion of cytokines and chemokines” value in the series with THP1-Dual cells (prodrug 100 μM, MSA-2 25 μM) is “induced distinct secretion of cytokines and chemokines”.

`O=C1[O][Pt]2([NH][C@@H]3CCCC[C@H]3[NH]2)[O]C1=O` [oxaliplatin, reference compound]: in series [1], the “CD45+ cells among viable splenic cells” value is listed as “significantly upregulated” and the “splenic CD8+ T cells in the CD45+ cell population” value was “strongest effect”. Besides, the “TNF-α and IFN-γ secretion” value with THP1-Dual cells (oxaliplatin 5 μM) is listed as “activated predominantly by oxaliplatin”.
